The record followed here is patent publication US20050256003A1, “Novel herbicides” (priority 2002, published 2005).

This experiment has as its system selected test plants. Put plainly: Post-emergence action in a different test arrangement (Table B3). The format is in vivo. Also on record: key to Post-emergence action (different test arrangement), Nasturtium / Post-emergence action (different test arrangement), Stellaria / Post-emergence action (different test arrangement), Solanum: 10=total damage; 0=no action; Ratings of from 10 to 7 (especially from 10 to 8) indicate good to very good herbicidal action. The settings on record: 250 g a.i./ha.

For the compound `O=C1CCCC(O)=C1C(=O)c1ccc(C(F)(F)F)nc1COCCN1CCCC1=O` [Compound A1.220], the “Post-emergence action (different test arrangement), Amaranthus” value (Amaranthus) is 9. Moreover, the “Post-emergence action (different test arrangement), Nasturtium” value (Nasturtium) amounted to 10. Also, where the note is “Solanum”, the “Post-emergence action (different test arrangement), Solanum” value worked out at 9. The “Post-emergence action (different test arrangement), Stellaria” value (Stellaria) is reported as 10.
